In patent US10028933B2, “Compositions and methods for inhibiting the growth of multi-drug resistant microbes” (priority 2015, dated 2018):
Entries after “also recorded” stand apart in the source; their conditions may differ.

What was measured:
[1] = system: Francisella tularensis; details: cited from earlier work
[2] = system: Salmonella Typhimurium; details: cited from earlier work
[3] = preclinical studies; cited from earlier work
[4] = long term oral exposures up to 33 weeks; cited from earlier work
[5] = system: B. cenocepacia strain k56-2; details: 5 μM AR-13 alone
[6] = system: human CF and non-CF MDMs; experiment: macrophage viability assay at 24 h
[7] = system: P. aeruginosa; experiment: direct bacterial killing assay in media alone of CF clinical P. aeruginosa isolate (24 hours); details: media devoid of human macrophages or neutrophils, n=3
[8] = system: B. cenocepacia; experiment: direct bacterial killing assay in media alone (optical absorbance density over 24 hours)
[9] = system: MRSA; experiment: bacterial killing assay of CF clinical MRSA isolate in media (optical absorbance density, 24 hours); assay type: cell-based
[10] = system: P. aeruginosa; details: AR-13 alone

Structure (SMILES)	antibacterial activity against intracellular Francisella tularensis in macrophages [1]	antibacterial activity against intracellular Salmonella Typhimurium in macrophages [2]	accumulation in tissues relative to blood level concentrations [3]	blood brain barrier penetration [3]	safety profile in phase I study [4]	reduction in B. cenocepacia burden in infected CF and non-CF macrophages [5]	AR-13 concentrations tolerated by CF and non-CF macrophages and neutrophils ([6]; CF and non-CF macrophages and neutrophils)	macrophage viability ([6]; human CF and non-CF MDMs, uninfected or infected with B. cenocepacia, 24 h)	AR-13 concentrations resulting in increased toxicity ([6]; uninfected MDMs)	direct killing of P. aeruginosa in media [7]	reduction of optical absorbance density of B. cenocepacia compared to no treatment ([8]; AR-13 alone vs B. cenocepacia alone, media, 24 hour period, n=3)	direct killing / bacterial growth of B. cenocepacia in media alone ([8]; media alone, 24 hours, AR-13 5 μM)	killing of MRSA in media ([9]; 24 hours, media)	reduction of optical absorbance density of MRSA compared to no treatment ([9]; CF clinical MRSA isolate, 24 hour period, n=3)	AR-13 concentration of greatest efficacy against MRSA (dose titration) ([9]; dose titration 5, 2.5, 1.25 μM, 24 hours, n=3)	reduction in P. aeruginosa burden in CF neutrophils ([10]; CF neutrophils)	reduction in P. aeruginosa burden in non-CF neutrophils ([10]; non-CF neutrophils)
NCC(=O)Nc1ccc(-n2nc(C(F)(F)F)cc2-c2ccc3c(ccc4ccccc43)c2)cc1 [AR-12]	antibacterial activity	antibacterial activity	exceeding the blood level concentrations by several fold	rapid blood brain barrier penetration	acceptable safety profile	–	–	–	–	–	–	–	–	–	–	–	–
NS(=O)(=O)Nc1ccc(-n2nc(C(F)(F)F)cc2-c2ccc3c(ccc4ccccc43)c2)cc1 [AR-13, N-{4-[5-(Phenanthren-2-yl)-3-(trifluoromethyl)-1H-pyrazol-1-yl]phenyl}sulfuric diamide]	–	–	–	–	–	23%	up to 10 μM	no significant differences in cell viability; also recorded: does not impact macrophage viability	above 10 μM	did not demonstrate direct killing; also recorded: did not enhance bacterial killing in media; also recorded: no direct effect	about 1.3 fold	significant reduction in bacterial growth; also recorded: direct killing effect	bacterial optical density increases as the dose of AR-13 decreases	about 1.3 fold	5 µM	70%	66%
